Laboratory results reported in ChEMBL document CHEMBL3885881, “DrugMatrix”.

Organism: Rattus norvegicus
Experiment: DrugMatrix - Regimen: Daily Repeat
Assay type: toxicity, organism-based, Sprague-Dawley
Parameters: regimen Daily Repeat, gender Male, age 6-8 weeks
Details: in vivo, po, route oral GAVAGE, vehicle .5 % CMC; for ABSOLUTE BASOPHIL / ABSOLUTE EOSINOPHIL / ABSOLUTE LYMPHOCYTE / ABSOLUTE MONOCYTE / ABSOLUTE SEGMENTED NEUTROPHIL / BASOPHIL / EOSINOPHIL / ERYTHROCYTE COUNT / HEMATOCRIT / HEMOGLOBIN / LEUKOCYTE COUNT / LYMPHOCYTE / MEAN CORPUSCULAR HEMOGLOBIN / MEAN CORPUSCULAR HEMOGLOBIN CONCENTRATION / MEAN CORPUSCULAR VOLUME / MONOCYTE / NEUTROPHIL / NUCLEATED RED BLOOD CELLS / PLATELET COUNT: tissue Blood; for ALANINE AMINOTRANSFERASE / ALBUMIN / ALKALINE PHOSPHATASE / ASPARTATE AMINOTRANSFERASE / BLOOD UREA NITROGEN / CARBON DIOXIDE / CHLORIDE / CHOLESTEROL / CREATINE PHOSPHOKINASE / CREATININE / GLUCOSE / LIPASE / PHOSPHORUS / POTASSIUM / SODIUM / TOTAL BILIRUBIN / TOTAL PROTEIN / URIC ACID: tissue Plasma
[1] = 0.3 mg/kg, 72 h, dose level High, time 3 day
[2] = 0.3 mg/kg, 120 h, dose level High, time 5 day
[3] = […], 72 h, dose 0.014 mg/Kg, dose level Low, time 3 day
[4] = […], 120 h, dose 0.014 mg/Kg, dose level Low, time 5 day

SMILES: COc1cc2c(c3oc(=O)c4c(c13)CCC4=O)[C@@H]1C=CO[C@@H]1O2 [AFLATOXIN]
- ABSOLUTE BASOPHIL [1]: 0 CELLS/uL
- ABSOLUTE EOSINOPHIL [1]: 214.67 CELLS/uL
- ABSOLUTE LYMPHOCYTE [1]: 14943 CELLS/uL
- ABSOLUTE MONOCYTE [1]: 279 CELLS/uL
- ABSOLUTE SEGMENTED NEUTROPHIL [1]: 1230 CELLS/uL
- BASOPHIL [1]: 0%
- EOSINOPHIL [1]: 1.33%
- ERYTHROCYTE COUNT [1]: 5.62 x10E6/uL
- HEMATOCRIT [1]: 35.63%
- HEMOGLOBIN [1]: 13.67 G/DL
- LEUKOCYTE COUNT [1]: 16.67 x10E3/uL
- LYMPHOCYTE [1]: 89.67%
- MEAN CORPUSCULAR HEMOGLOBIN [1]: 24.33 pg
- MEAN CORPUSCULAR HEMOGLOBIN CONCENTRATION [1]: 38.33 G/DL
- MEAN CORPUSCULAR VOLUME [1]: 63.4 fL
- MONOCYTE [1]: 1.67%
- NEUTROPHIL [1]: 7.33%
- NUCLEATED RED BLOOD CELLS [1]: 0.33 /100WBC
- PLATELET COUNT [1]: 1408.33 x10E3/uL
- ALANINE AMINOTRANSFERASE [1]: 50 u/L
- ALBUMIN [1]: 4.07 G/DL
- ALKALINE PHOSPHATASE [1]: 424 u/L
- ASPARTATE AMINOTRANSFERASE [1]: 109.33 u/L
- BLOOD UREA NITROGEN [1]: 15.67 mg/dL
- CARBON DIOXIDE [1]: 24.33 mmol/L
- CHLORIDE [1]: 104 MEQ/L
- CHOLESTEROL [1]: 59.67 mg/dL
- CREATINE PHOSPHOKINASE [1]: 568.33 u/L
- CREATININE [1]: 0.14 mg/dL
- GLUCOSE [1]: 152.67 mg/dL
- LIPASE [1]: 8.67 u/L
- PHOSPHORUS [1]: 13 mg/dL
- POTASSIUM [1]: 6.95 MEQ/L
- SODIUM [1]: 144.7 MEQ/L
- TOTAL BILIRUBIN [1]: 0.23 mg/dL
- TOTAL PROTEIN [1]: 5.27 G/DL
- URIC ACID [1]: 1.73 mg/dL
- ABSOLUTE BASOPHIL [2]: 0 CELLS/uL
- ABSOLUTE EOSINOPHIL [2]: 83.33 CELLS/uL
- ABSOLUTE LYMPHOCYTE [2]: 13811.33 CELLS/uL
- ABSOLUTE MONOCYTE [2]: 454 CELLS/uL
- ABSOLUTE SEGMENTED NEUTROPHIL [2]: 784.67 CELLS/uL
- BASOPHIL [2]: 0%
- EOSINOPHIL [2]: 0.67%
- ERYTHROCYTE COUNT [2]: 5.95 x10E6/uL
- HEMATOCRIT [2]: 36.77%
- HEMOGLOBIN [2]: 14.07 G/DL
- LEUKOCYTE COUNT [2]: 15.13 x10E3/uL
- LYMPHOCYTE [2]: 91%
- MEAN CORPUSCULAR HEMOGLOBIN [2]: 23.63 pg
- MEAN CORPUSCULAR HEMOGLOBIN CONCENTRATION [2]: 38.23 G/DL
- MEAN CORPUSCULAR VOLUME [2]: 61.8 fL
- MONOCYTE [2]: 3%
- NEUTROPHIL [2]: 5.33%
- NUCLEATED RED BLOOD CELLS [2]: 0 /100WBC
- PLATELET COUNT [2]: 1425.67 x10E3/uL
- ALANINE AMINOTRANSFERASE [2]: 64.67 u/L
- ALBUMIN [2]: 4.1 G/DL
- ALKALINE PHOSPHATASE [2]: 290.33 u/L
- ASPARTATE AMINOTRANSFERASE [2]: 102.33 u/L
- BLOOD UREA NITROGEN [2]: 17.33 mg/dL
- CARBON DIOXIDE [2]: 27 mmol/L
- CHLORIDE [2]: 105.5 MEQ/L
- CHOLESTEROL [2]: 48 mg/dL
- CREATINE PHOSPHOKINASE [2]: 345.67 u/L
- CREATININE [2]: 0.19 mg/dL
- GLUCOSE [2]: 158.67 mg/dL
- LIPASE [2]: 9 u/L
- PHOSPHORUS [2]: 12.27 mg/dL
- POTASSIUM [2]: 5.92 MEQ/L
- SODIUM [2]: 147.5 MEQ/L
- TOTAL BILIRUBIN [2]: 0.13 mg/dL
- TOTAL PROTEIN [2]: 5.53 G/DL
- URIC ACID [2]: 1.93 mg/dL
- ABSOLUTE BASOPHIL [3]: 0 CELLS/uL
- ABSOLUTE EOSINOPHIL [3]: 94 CELLS/uL
- ABSOLUTE LYMPHOCYTE [3]: 13843.33 CELLS/uL
- ABSOLUTE MONOCYTE [3]: 261.67 CELLS/uL
- ABSOLUTE SEGMENTED NEUTROPHIL [3]: 1234.33 CELLS/uL
- BASOPHIL [3]: 0%
- EOSINOPHIL [3]: 0.67%
- ERYTHROCYTE COUNT [3]: 5.21 x10E6/uL
- HEMATOCRIT [3]: 33%
- HEMOGLOBIN [3]: 12.47 G/DL
- LEUKOCYTE COUNT [3]: 15.43 x10E3/uL
- LYMPHOCYTE [3]: 89.67%
- MEAN CORPUSCULAR HEMOGLOBIN [3]: 23.93 pg
- MEAN CORPUSCULAR HEMOGLOBIN CONCENTRATION [3]: 37.8 G/DL
- MEAN CORPUSCULAR VOLUME [3]: 63.23 fL
- MONOCYTE [3]: 1.67%
- NEUTROPHIL [3]: 8%
- NUCLEATED RED BLOOD CELLS [3]: 0 /100WBC
- PLATELET COUNT [3]: 1257 x10E3/uL
- ALANINE AMINOTRANSFERASE [3]: 47.67 u/L
- ALBUMIN [3]: 4.1 G/DL
- ALKALINE PHOSPHATASE [3]: 302.67 u/L
- ASPARTATE AMINOTRANSFERASE [3]: 99 u/L
- BLOOD UREA NITROGEN [3]: 16.33 mg/dL
- CARBON DIOXIDE [3]: 25.33 mmol/L
- CHLORIDE [3]: 103.33 MEQ/L
- CHOLESTEROL [3]: 64.67 mg/dL
- CREATINE PHOSPHOKINASE [3]: 408 u/L
- CREATININE [3]: 0.21 mg/dL
- GLUCOSE [3]: 142.33 mg/dL
- LIPASE [3]: 9 u/L
- PHOSPHORUS [3]: 12.17 mg/dL
- POTASSIUM [3]: 6.42 MEQ/L
- SODIUM [3]: 143.57 MEQ/L
- TOTAL BILIRUBIN [3]: 0.2 mg/dL
- TOTAL PROTEIN [3]: 5.47 G/DL
- URIC ACID [3]: 1.47 mg/dL
- ABSOLUTE BASOPHIL [4]: 0 CELLS/uL
- ABSOLUTE EOSINOPHIL [4]: 37.67 CELLS/uL
- ABSOLUTE LYMPHOCYTE [4]: 14048 CELLS/uL
- ABSOLUTE MONOCYTE [4]: 191.67 CELLS/uL
- ABSOLUTE SEGMENTED NEUTROPHIL [4]: 1122.67 CELLS/uL
- BASOPHIL [4]: 0%
- EOSINOPHIL [4]: 0.33%
- ERYTHROCYTE COUNT [4]: 5.76 x10E6/uL
- HEMATOCRIT [4]: 35.83%
- HEMOGLOBIN [4]: 13.37 G/DL
- LEUKOCYTE COUNT [4]: 15.4 x10E3/uL
- LYMPHOCYTE [4]: 91%
- MEAN CORPUSCULAR HEMOGLOBIN [4]: 23.2 pg
- MEAN CORPUSCULAR HEMOGLOBIN CONCENTRATION [4]: 37.3 G/DL
- MEAN CORPUSCULAR VOLUME [4]: 62.2 fL
- MONOCYTE [4]: 1.33%
- NEUTROPHIL [4]: 7.33%
- NUCLEATED RED BLOOD CELLS [4]: 1.33 /100WBC
- PLATELET COUNT [4]: 1353 x10E3/uL
- ALANINE AMINOTRANSFERASE [4]: 48.33 u/L
- ALBUMIN [4]: 4.3 G/DL
- ALKALINE PHOSPHATASE [4]: 352.33 u/L
- ASPARTATE AMINOTRANSFERASE [4]: 90.33 u/L
- BLOOD UREA NITROGEN [4]: 19.67 mg/dL
- CARBON DIOXIDE [4]: 26.33 mmol/L
- CHLORIDE [4]: 105.67 MEQ/L
- CHOLESTEROL [4]: 63.33 mg/dL
- CREATINE PHOSPHOKINASE [4]: 486.67 u/L
- CREATININE [4]: 0.21 mg/dL
- GLUCOSE [4]: 164.67 mg/dL
- LIPASE [4]: 8.33 u/L
- PHOSPHORUS [4]: 12.6 mg/dL
- POTASSIUM [4]: 6.34 MEQ/L
- SODIUM [4]: 146.9 MEQ/L
- TOTAL BILIRUBIN [4]: 0.2 mg/dL
- TOTAL PROTEIN [4]: 6.03 G/DL
- URIC ACID [4]: 1.93 mg/dL
